Tests used:
[1] = system: RAW 264.7 macrophage cells; format: cell-based
Procedure: The cells were cultured for 3 days to reach about 80% confluence. The media was removed from the wells and the cells were washed once with about 250 μL of PBS. […] As controls, cells were exposed to a) 100 μL of serum-free DMEM, b) 100 µL of 10% v/v DMSO in serum-free DMEM, and c) 100 μL of 0.1 wt. % OVA-FITC in serum-free DMEM, were added to the cells. The cells were incubated for 4 h at 37° C., 5% CO2 in a humidified atmosphere. […] After 15 min, the paraformaldehyde solution was removed, the cells were washed twice with about 250 μL of PBS, and then 100 μL of PBS was added to the fixed cells. The cells were then imaged by brightfield and confocal fluorescence microscopy

[2] = system: RAW 264.7 macrophage cells; assay: MTS cytotoxicity assay; format: cell-based; conditions: 4 hours incubation; particles 0.1 wt. %, DMSO 10% v/v, serum-free DMEM; mean±standard deviation
Procedure: The cells were cultured for 3 days to reach around 80% confluence. The media was removed from the wells and the cells were washed once with about 250 μL of PBS. […] As controls, 100 μL of serum-free DMEM supplemented with 1% penicillin-streptomycin, 100 μL of 10% v/v DMSO in serum-free DMEM supplemented with 1% penicillin-streptomycin, 100 μL of 0.1 wt. % OVA-FITC in serum-free DMEM supplemented with 1% penicillin-streptomycin, and 100 μL of 0.1 wt. % HD particles suspensions in serum-free DMEM supplemented with 1% penicillin-streptomycin were added to the cells. The cells were incubated for 4 h at 37° C., 5% CO2 in a humidified atmosphere. 20 μL of MTS solution (Promega) was added to the wells and mixed. The plates were shaken at a horizontal distance of 1 mm for 10 seconds and read at 490 nm using a Biotek™ 800 TS absorbance reader. Statistical analysis was performed on the data using one-way analysis of variance (ANOVA) with a Bonferroni post hoc analysis. Significance level was set at p<0.05.

C[S+](C)[O-] [DMSO, dimethyl sulfoxide]
cell morphology by brightfield microscopy [1]: rounded cell morphology and signs of apoptosis
mean viability of RAW 264.7 cells [2]: 64±12%
